{"source": "ChEMBL document CHEMBL1201862", "about": "“PubChem BioAssay data set” (2004)", "key": {"[1]": {"target": "DNA damage-inducible transcript 3 protein (Mus musculus, UniProt P35639)", "sequence (P35639 whole entry)": "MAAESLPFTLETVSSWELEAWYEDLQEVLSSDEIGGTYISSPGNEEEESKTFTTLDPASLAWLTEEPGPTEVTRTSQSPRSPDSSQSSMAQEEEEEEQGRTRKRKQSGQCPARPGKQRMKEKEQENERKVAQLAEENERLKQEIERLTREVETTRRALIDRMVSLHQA", "assay_type": "functional, Cricetulus griseus"}, "HEK293 [2]": {"system": "HEK293", "test": "NOD2 signaling inhibitors in MDP-stimulated cells, cell-based, uHTS, luminescence (AID 2001)", "assay_type": "functional", "conditions": "Homo sapiens"}, "[3]": {"target": "T1, Carboxy-terminal domain RNA polymerase II polypeptide A small phosphatase 1 (Homo sapiens, UniProt Q9GZU7)", "T1 sequence (Q9GZU7 whole entry)": "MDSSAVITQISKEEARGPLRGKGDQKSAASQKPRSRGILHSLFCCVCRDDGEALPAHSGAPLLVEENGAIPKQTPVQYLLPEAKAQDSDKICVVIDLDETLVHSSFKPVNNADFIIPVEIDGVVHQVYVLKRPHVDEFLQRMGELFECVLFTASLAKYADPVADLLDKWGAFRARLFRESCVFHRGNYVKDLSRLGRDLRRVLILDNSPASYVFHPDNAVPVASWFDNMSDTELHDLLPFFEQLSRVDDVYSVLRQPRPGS", "test": "inhibitors of CTDSP1, concentration-response testing, biochemical assay, absorbance-based, actives from ultra-high-throughput screening (AID 540297)", "assay_type": "functional"}, "HEK293 [4]": {"system": "HEK293", "test": "cells", "assay_type": "functional, cell-based", "conditions": "Homo sapiens"}, "HEK293 [5]": {"system": "HEK293", "test": "NOD1 signaling inhibitors, primary screen, cell-based, luminescence, uHTS (AID 1578)", "assay_type": "functional", "conditions": "Homo sapiens"}, "HEK293 [6]": {"system": "HEK293", "test": "cells", "assay_type": "functional, cell-based", "conditions": "Homo sapiens", "remark": "listed apart in the source"}, "HEK293 [7]": {"system": "HEK293", "test": "cells", "assay_type": "functional, cell-based", "conditions": "Homo sapiens", "remark": "listed apart in the source"}, "[8]": {"target": "Nucleotide-binding oligomerization domain-containing protein 2 (Homo sapiens, UniProt Q9HC29)", "sequence (Q9HC29 whole entry, the tested form may be a part)": "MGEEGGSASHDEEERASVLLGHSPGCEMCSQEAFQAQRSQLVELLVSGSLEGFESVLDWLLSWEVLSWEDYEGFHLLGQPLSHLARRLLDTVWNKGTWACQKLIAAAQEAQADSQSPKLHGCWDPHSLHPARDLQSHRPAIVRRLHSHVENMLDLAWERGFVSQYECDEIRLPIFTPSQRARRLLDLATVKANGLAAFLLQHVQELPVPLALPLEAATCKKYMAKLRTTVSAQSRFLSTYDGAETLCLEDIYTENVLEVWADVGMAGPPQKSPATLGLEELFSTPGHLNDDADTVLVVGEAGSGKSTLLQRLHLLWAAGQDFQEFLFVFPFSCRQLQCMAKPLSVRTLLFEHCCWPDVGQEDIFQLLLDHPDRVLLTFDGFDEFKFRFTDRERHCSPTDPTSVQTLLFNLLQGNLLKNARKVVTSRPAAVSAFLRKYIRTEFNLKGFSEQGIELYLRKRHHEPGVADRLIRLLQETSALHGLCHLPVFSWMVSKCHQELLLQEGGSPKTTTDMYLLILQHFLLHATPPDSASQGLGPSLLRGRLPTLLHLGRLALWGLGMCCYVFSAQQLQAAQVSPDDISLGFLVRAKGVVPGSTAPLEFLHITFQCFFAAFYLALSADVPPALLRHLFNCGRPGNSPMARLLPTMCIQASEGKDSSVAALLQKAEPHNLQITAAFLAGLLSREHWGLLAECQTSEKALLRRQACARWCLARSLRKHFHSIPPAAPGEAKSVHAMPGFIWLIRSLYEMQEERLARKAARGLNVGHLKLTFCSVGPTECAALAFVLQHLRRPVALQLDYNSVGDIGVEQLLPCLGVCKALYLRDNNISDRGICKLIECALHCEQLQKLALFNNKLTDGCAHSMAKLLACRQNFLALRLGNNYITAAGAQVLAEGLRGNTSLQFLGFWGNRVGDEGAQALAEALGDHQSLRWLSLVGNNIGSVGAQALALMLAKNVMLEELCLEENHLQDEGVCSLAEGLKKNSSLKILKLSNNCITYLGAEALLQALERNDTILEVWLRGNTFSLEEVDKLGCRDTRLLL", "test": "NOD2 signaling inhibitors, cell-based, luminescence, uHTS, HEK293 (AID 1566)", "assay_type": "functional"}, "cells": {"test": "cells", "assay_type": "functional"}, "[9]": {"target": "T2, Voltage-gated N-type calcium channel alpha-1B subunit/Amyloid beta A4 precursor protein-binding family A member 1 (Homo sapiens, UniProt Q00975+Q02410)", "T2 sequence (Q00975 whole entry)": "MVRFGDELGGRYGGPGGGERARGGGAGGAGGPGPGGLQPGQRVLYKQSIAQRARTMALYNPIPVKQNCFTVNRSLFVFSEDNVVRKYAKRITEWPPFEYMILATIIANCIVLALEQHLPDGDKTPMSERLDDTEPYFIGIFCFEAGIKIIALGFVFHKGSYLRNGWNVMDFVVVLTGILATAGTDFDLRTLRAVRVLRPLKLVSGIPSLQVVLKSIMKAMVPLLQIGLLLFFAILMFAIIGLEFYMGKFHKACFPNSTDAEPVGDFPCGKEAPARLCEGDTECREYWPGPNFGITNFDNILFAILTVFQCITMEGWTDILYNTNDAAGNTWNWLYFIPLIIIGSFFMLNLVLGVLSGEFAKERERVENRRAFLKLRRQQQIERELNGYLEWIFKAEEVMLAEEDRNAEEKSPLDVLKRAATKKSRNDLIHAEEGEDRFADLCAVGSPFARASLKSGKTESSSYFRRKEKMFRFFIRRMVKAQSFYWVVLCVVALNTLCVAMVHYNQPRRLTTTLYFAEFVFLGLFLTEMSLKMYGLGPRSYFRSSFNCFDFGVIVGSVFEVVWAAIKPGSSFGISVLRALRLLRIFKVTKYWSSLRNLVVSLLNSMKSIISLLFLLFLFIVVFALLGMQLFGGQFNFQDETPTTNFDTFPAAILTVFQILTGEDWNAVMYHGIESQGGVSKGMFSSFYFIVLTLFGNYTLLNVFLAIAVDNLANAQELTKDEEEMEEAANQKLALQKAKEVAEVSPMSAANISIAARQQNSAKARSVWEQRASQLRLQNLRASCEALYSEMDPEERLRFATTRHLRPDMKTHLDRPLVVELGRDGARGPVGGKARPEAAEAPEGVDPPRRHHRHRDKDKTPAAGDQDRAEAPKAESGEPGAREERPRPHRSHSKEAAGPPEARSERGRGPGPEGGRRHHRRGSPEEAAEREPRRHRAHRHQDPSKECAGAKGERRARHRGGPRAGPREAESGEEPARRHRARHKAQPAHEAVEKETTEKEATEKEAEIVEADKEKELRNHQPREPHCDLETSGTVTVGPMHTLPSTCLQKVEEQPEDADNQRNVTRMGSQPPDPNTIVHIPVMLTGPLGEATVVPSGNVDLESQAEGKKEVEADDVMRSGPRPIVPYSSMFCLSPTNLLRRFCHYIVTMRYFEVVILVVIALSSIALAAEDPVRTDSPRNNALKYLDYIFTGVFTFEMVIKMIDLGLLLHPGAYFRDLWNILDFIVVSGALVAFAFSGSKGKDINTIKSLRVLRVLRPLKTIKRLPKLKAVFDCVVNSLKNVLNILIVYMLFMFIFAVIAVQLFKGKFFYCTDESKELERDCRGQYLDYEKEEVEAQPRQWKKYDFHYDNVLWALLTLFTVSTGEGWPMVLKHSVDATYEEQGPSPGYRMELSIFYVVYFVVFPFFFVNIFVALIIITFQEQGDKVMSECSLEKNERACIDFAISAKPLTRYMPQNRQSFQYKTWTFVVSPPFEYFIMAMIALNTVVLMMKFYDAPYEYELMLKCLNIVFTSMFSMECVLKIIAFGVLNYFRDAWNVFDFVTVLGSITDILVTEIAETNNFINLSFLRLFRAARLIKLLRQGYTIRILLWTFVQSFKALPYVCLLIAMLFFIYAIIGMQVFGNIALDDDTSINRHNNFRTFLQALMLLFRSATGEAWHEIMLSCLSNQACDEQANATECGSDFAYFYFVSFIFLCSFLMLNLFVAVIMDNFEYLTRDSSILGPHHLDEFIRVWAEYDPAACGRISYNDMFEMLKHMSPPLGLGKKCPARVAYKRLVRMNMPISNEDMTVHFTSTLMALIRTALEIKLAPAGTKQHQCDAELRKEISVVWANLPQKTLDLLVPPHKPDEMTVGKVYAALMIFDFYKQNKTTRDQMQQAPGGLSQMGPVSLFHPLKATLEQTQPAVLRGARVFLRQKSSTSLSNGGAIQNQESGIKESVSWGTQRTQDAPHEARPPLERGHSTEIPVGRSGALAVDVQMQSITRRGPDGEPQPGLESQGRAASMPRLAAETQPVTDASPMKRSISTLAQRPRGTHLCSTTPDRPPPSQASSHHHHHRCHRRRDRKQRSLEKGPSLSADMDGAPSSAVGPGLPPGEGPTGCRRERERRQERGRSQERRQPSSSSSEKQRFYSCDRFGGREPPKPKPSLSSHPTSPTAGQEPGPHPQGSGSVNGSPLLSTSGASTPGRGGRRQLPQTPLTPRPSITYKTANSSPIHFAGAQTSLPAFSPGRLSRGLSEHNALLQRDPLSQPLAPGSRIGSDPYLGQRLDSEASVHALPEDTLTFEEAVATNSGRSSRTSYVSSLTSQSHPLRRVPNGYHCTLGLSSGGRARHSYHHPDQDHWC", "T2 sequence (Q02410 whole entry)": "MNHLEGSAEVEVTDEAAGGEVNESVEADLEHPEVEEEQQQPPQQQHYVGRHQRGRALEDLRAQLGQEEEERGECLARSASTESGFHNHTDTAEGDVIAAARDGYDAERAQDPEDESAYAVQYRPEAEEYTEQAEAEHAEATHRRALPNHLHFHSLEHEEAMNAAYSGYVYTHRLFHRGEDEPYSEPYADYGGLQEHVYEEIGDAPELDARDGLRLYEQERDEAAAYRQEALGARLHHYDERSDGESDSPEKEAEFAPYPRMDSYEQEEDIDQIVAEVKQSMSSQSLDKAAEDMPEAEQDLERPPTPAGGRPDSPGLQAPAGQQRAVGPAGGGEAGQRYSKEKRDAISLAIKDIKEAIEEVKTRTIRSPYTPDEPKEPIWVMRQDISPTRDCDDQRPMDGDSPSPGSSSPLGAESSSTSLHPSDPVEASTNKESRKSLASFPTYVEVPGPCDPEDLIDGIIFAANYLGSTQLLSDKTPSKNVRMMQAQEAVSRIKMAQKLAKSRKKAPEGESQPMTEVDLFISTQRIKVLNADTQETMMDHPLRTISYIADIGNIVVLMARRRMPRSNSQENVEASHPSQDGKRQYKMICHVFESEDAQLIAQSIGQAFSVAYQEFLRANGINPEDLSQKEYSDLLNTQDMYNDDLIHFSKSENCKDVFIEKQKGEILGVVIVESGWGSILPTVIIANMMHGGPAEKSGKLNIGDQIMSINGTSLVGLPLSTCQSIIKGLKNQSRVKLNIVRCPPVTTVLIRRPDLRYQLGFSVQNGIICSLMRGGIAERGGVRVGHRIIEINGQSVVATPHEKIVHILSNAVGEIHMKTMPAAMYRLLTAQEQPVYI", "assay_type": "protein assay"}, "[10]": {"target": "T2, Voltage-gated N-type calcium channel alpha-1B subunit/Amyloid beta A4 precursor protein-binding family A member 1", "assay_type": "protein assay", "remark": "listed apart in the source"}, "[11]": {"test": "THP-1 cell cytotoxicity, dose response, cytotoxicity control for non-replicating M. tuberculosis project (AID 489025)", "assay_type": "functional"}, "Large T antigen": {"target": "Large T antigen (Simian virus 40, UniProt P03070)", "assay_type": "functional, Betapolyomavirus macacae"}, "[12]": {"test": "growth suppression of PTEN-null colon cells, dose response, cell-based, HCT116 PTEN knockout (AID 1047);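 note: HCT116 colon tumor cells with PTEN knocked out; cells exposed to compound for 60 hours before readout; potency for loss of cell viability measured by luminescence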", "assay_type": "functional"}, "[13]": {"test": "growth suppression of beta-catenin-knockout colon cells, dose response, cell-based, HCT116, human colon tumor (AID 1045);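 note: HCT116 colon tumor cells with beta catenin knocked out; cells exposed to compound for 60 hours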", "assay_type": "functional"}, "[14]": {"target": "T3, Microphthalmia-associated transcription factor (Homo sapiens, UniProt O75030)", "T3 sequence (O75030 whole entry)": "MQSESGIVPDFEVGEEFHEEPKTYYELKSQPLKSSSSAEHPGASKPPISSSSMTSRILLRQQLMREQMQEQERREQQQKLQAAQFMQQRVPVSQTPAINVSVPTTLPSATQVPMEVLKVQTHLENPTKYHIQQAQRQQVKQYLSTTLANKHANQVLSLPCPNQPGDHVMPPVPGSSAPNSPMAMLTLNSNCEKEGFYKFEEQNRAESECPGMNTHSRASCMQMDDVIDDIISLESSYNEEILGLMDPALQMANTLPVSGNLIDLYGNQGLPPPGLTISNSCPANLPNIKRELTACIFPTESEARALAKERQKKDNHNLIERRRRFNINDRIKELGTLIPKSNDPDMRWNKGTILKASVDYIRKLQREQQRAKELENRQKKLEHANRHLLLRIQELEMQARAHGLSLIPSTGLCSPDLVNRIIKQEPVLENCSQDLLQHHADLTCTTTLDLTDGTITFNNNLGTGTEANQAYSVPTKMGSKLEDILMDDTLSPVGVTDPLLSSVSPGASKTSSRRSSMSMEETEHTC", "test": "TRPM1 promoter luciferase signal decrease, dose response, MITF inhibitor project, cell-based, SK-MEL-5, cherry-picked, set 3 (AID 493073)", "assay_type": "functional"}, "[15]": {"target": "Neurotensin receptor type 1 (Homo sapiens, UniProt P30989)", "assay_type": "functional"}, "Protein skinhead-1": {"target": "T4, Protein skinhead-1 (Caenorhabditis elegans, UniProt P34707)", "T4 sequence (P34707 whole entry)": "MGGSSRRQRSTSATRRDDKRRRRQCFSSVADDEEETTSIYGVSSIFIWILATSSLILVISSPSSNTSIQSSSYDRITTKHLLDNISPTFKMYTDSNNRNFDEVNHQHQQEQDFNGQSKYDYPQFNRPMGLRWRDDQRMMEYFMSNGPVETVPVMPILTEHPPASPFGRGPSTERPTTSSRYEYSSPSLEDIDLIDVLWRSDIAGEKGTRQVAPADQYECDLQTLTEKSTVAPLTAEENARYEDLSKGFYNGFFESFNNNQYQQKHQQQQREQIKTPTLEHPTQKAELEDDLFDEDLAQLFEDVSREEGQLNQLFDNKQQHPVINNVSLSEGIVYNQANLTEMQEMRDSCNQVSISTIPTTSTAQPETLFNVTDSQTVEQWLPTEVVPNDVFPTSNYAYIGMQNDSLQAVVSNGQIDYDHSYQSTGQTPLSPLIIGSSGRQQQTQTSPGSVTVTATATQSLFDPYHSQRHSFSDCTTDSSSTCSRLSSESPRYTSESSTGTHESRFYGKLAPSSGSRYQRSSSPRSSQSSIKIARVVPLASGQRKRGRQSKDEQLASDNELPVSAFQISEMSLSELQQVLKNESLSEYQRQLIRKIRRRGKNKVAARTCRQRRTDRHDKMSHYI", "assay_type": "functional"}, "[16]": {"test": "A cytotoxicity screen of small molecule inhibitors of the PhoP region in Salmonella typhi identified in the primary screen. [Related pubchem assays: 1850, 1864, 1985 ]", "assay_type": "functional"}, "[17]": {"target": "T5, Orexin/Hypocretin receptor type 1 (Homo sapiens, UniProt O43613)", "T5 sequence (O43613 whole entry)": "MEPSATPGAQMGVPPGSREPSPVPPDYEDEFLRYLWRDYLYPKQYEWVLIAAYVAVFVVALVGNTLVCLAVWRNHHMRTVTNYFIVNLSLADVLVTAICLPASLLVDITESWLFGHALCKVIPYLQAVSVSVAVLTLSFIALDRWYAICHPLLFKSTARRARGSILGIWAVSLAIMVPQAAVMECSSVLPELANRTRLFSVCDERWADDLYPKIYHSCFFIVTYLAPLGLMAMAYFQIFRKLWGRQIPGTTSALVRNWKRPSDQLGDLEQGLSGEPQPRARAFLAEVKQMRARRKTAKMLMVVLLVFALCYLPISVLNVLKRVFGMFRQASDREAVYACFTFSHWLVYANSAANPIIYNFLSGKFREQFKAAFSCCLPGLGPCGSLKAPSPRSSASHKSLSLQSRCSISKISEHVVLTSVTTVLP", "test": "Homogeneous Time Resolved Fluorescence (HTRF)-based cell-based high throughput dose response assay for antagonists of the orexin 1 receptor (OX1R; HCRTR1). [Related pubchem assays (depositor defined):AID434989, AID435008, AID463079, AID485270, AID492963, AID492964, AID492965, AID493232, AID504717, AID504718]", "assay_type": "functional"}, "CHO-K1": {"system": "CHO-K1", "test": "(§1) Counterscreen for antagonists of the orexin 1 receptor (OX1R; HCRTR1): Homogeneous time resolved fluorescence (HTRF)-based cell-based dose response assay to identify antagonists of the parental CHO-K1 cell line. [Related pubchem assays (depositor defined):AID434989, AID435008, AID463079, AID485270, AID492963, AID492964, AID492965, AID493232, AID504699, AID504701]", "assay_type": "functional", "conditions": "Cricetulus griseus"}, "[18]": {"test": "as §1, with “Fluorescence-based” for “Homogeneous time resolved fluorescence (HTRF)-based”, “cell-based high throughput” for “cell-based”, “CHO” for “CHO-K1”", "assay_type": "functional"}, "[19]": {"target": "T5, Orexin/Hypocretin receptor type 1", "test": "Fluorescence-based cell-based high throughput dose response assay for antagonists of the orexin 1 receptor (OX1R; HCRTR1). [Related pubchem assays (depositor defined):AID434989, AID435008, AID463079, AID485270, AID492963, AID492964, AID492965, AID493232, AID504717, AID504718]", "assay_type": "functional"}, "[20]": {"target": "Eukaryotic translation initiation factor 4H (Homo sapiens, UniProt Q15056)", "test": "human eIF4H binding inhibitors, primary screen, translation initiation inhibitor project, biochemical, uHTS, fluorescence polarization (AID 2012)"}, "[21]": {"target": "Polyadenylate-binding protein 1 (Homo sapiens, UniProt P11940)", "sequence (P11940 whole entry)": "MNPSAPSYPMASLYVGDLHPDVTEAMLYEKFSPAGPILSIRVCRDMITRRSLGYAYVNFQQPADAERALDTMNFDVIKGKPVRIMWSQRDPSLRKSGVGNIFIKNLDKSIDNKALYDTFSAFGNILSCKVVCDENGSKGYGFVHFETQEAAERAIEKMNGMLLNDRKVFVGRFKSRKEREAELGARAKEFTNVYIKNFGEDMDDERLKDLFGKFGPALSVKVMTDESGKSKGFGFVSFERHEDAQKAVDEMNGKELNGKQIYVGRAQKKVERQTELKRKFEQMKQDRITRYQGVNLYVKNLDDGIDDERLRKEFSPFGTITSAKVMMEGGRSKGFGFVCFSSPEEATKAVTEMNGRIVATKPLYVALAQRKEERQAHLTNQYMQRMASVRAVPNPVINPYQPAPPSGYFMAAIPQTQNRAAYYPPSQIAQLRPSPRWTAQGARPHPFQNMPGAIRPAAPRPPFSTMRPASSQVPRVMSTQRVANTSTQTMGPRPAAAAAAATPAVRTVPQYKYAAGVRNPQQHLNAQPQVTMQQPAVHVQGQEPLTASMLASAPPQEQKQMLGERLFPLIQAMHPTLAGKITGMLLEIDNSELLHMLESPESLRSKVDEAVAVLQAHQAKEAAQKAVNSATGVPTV", "test": "PABP poly(A) RNA binding inhibitors, primary screen, biochemical, fluorescence polarization, uHTS (AID 2014)"}}, "note": "The source made the active and inactive calls.", "data": [{"compound": "COc1ccc(C2=NN(C(=O)c3ccco3)C(c3cc4ccccc4nc3Cl)C2)cc1", "note": "(centres undefined)", "values": [{"measurement": "Absolute IC50 (CHOP)", "setting": "[1]", "result": 10, "unit": "µM"}]}, {"compound": "COc1ccc2c(c1)c(=O)oc1c(C)c(OCc3ccc(C(=O)O)cc3)ccc12", "values": [{"measurement": "IC50", "setting": "HEK293 [2]", "result": "> 20 µM (inactive)"}, {"measurement": "IC50", "setting": "[3]", "result": "2.01 µM (active)"}, {"measurement": "IC50", "setting": "HEK293 [4]", "result": "14.4 µM (active)"}, {"measurement": "EC50", "setting": "HEK293 [5]", "result": "> 20 µM (inactive)"}, {"measurement": "IC50", "setting": "HEK293 [6]", "result": "> 20 µM (inactive)"}, {"measurement": "IC50", "setting": "HEK293 [7]", "result": "> 20 µM (inactive)"}, {"measurement": "EC50", "setting": "[8]", "result": "> 20 µM (inactive)"}]}, {"compound": "Cc1cccc(N2CCN(C(=O)Cn3sc4nc(C)cc(C)c4c3=O)CC2C)c1", "note": "(centres undefined)", "values": [{"measurement": "IC50", "setting": "cells", "result": "23.8 µM (active)"}, {"measurement": "IC50", "setting": "[9]", "result": "> 50 µM (inactive)"}, {"measurement": "IC50", "setting": "[10]", "result": "16.7 µM (active)"}, {"measurement": "CC50", "setting": "[11]", "result": "> 40 µM (active)"}, {"measurement": "IC50", "setting": "Large T antigen", "result": "18.1 µM (active)"}, {"measurement": "EC50", "setting": "[12]", "result": "17 µM (active)"}, {"measurement": "EC50", "setting": "[13]", "result": "17 µM (active)"}]}, {"compound": "Cn1cc([N+](=O)[O-])c(C(=O)Nc2nc(-c3ccc(Cl)cc3)cs2)n1", "values": [{"measurement": "AC50", "setting": "[14]", "result": "10.5 µM (active)"}, {"measurement": "EC50", "setting": "[15]", "result": "3.8 µM (active)"}, {"measurement": "EC50", "setting": "[12]", "result": "0.596 µM (active)"}, {"measurement": "EC50", "setting": "[13]", "result": "0.523 µM (active)"}]}, {"compound": "FC(F)(F)c1cc(-c2cccs2)nc(-n2cc(Br)cn2)n1", "values": [{"measurement": "Absolute IC50 (CHOP)", "setting": "[1]", "result": 10, "unit": "µM"}, {"measurement": "IC50", "setting": "Protein skinhead-1", "result": "> 100 µM (inactive)"}]}, {"compound": "Cc1c(C(=O)N2CCN(Cc3ccccc3)CC2)sc2ncnc(N3CCOCC3)c12", "values": [{"measurement": "EC50", "setting": "[16]", "result": "> 50 µM (active)"}]}, {"compound": "Cc1nc2cc(NC(=O)COc3ccccc3C#N)ccc2n1-c1ccccc1", "values": [{"measurement": "IC50", "setting": "[17]", "result": "1.61 µM (active)"}, {"measurement": "IC50", "setting": "CHO-K1", "result": "> 66.2 µM (inactive)"}, {"measurement": "IC50", "setting": "[18]", "result": "> 49.7 µM (inactive)"}, {"measurement": "IC50", "setting": "[19]", "result": "3.45 µM (active)"}]}, {"compound": "O=C(NC(Cc1ccccc1)c1nc2ccccc2[nH]1)C1CC(=O)N(c2ccc3c(c2)OCCO3)C1", "note": "(centres undefined)", "values": [{"measurement": "IC50", "setting": "[3]", "result": "41.4 µM (active)"}, {"measurement": "IC50", "setting": "[20]", "result": "56.2 µM (active)"}, {"measurement": "IC50", "setting": "[21]", "result": "8.72 µM (active)"}]}]}
